Among the test systems are A498; HL-60; K562; T47D; NCI/ADR-RES; NCI-H522; Hs-578T; HOP-92; HCT-15; EKVX; OVCAR-5; KM12; CCRF-CEM; SW-620; U-251; SK-MEL-28; HCC 2998; OVCAR-8; MDA-MB-435; UACC-62.
What all share (assay): DTP human tumour cell line panel, 48 h

Results on ten molecules are retold here after ChEMBL document CHEMBL1201862, “PubChem BioAssay data set” (2004).

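1) Cells in 96-well plates. 2) Compound, 48 h, 5 concentrations. 3) Linear interpolation between surrounding doses. 4) Unreached endpoint = highest concentration. Here, GI50 denotes the concentration required for 50% inhibition of growth.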 Calls of active or inactive are those of the source. No stated cut-off is given here; in the data, active = GI50 up to about 1.1 µM and inactive = higher.

What is called GI50 is the concentration at which growth is held to half of that of the control. With `CC(C)(C)COS(=O)OCC(C)(C)C`, the GI50 with A498, with HL-60, in the experiment with K562, in the experiment with T47D, in the experiment on NCI/ADR-RES and in the experiment on NCI-H522 was > 100 µM (inactive) throughout. Moreover, the GI50 with Hs-578T is > 100 µM (inactive); with HOP-92, > 100 µM (inactive); in the experiment with HCT-15 it was above 100 µM; with EKVX, > 100 µM (inactive); in the experiment on OVCAR-5 it was > 100 µM (inactive); with KM12, > 100 µM (inactive). For the same molecule, the GI50 in the experiment with CCRF-CEM, in the experiment with SW-620, in the experiment on U-251, in the experiment on SK-MEL-28, in the experiment with HCC 2998 and in the experiment with OVCAR-8 was > 100 µM (inactive) throughout. The GI50 in the experiment with MDA-MB-435 and in the experiment on UACC-62 was > 100 µM (inactive) in each case.
Regarding `O=C(NC(=O)c1c(F)cccc1F)Nc1cccc(Oc2ncc(Cl)cn2)c1`, the GI50 with A498 is > 76.6 µM (inactive); in the experiment on HL-60, 3.51 µM (inactive); in the experiment on K562, 3.1 µM (inactive); in the experiment with T47D it was > 35.2 µM (inactive); in the experiment with NCI/ADR-RES, > 23.3 µM (inactive); with NCI-H522, 20.3 µM (inactive). Also, the GI50 in the experiment on Hs-578T is 35.2 µM (inactive); with HOP-92 it was 16.6 µM (inactive); in the experiment with HCT-15 it was 3.27 µM; with EKVX, > 100 µM (inactive); with OVCAR-5, > 100 µM (inactive); with KM12, 1.4 µM (inactive). Besides, the GI50 in the experiment on CCRF-CEM was 47.1 µM (inactive); in the experiment with SW-620 it was 4.3 µM (inactive); in the experiment on U-251, 33.2 µM (inactive); in the experiment on SK-MEL-28, > 100 µM (inactive); with HCC 2998 it was 4.73 µM (inactive); with OVCAR-8, 43 µM (inactive). Moreover, the GI50 with MDA-MB-435 is 1.63 µM (inactive); with UACC-62, 36.6 µM (inactive).
Turning to `Nc1ccc(Sc2c3ccccc3nc3ccccc23)cc1`, the GI50 is 68.5 µM (inactive) in the experiment with A498; 2.96 µM (inactive) in the experiment with HL-60; 2.65 µM (inactive) in the experiment on K562; 2.06 µM (inactive) in the experiment on T47D; 7.73 µM (inactive) with NCI/ADR-RES; 6.15 µM (inactive) in the experiment on NCI-H522. For the same molecule, the GI50 in the experiment on Hs-578T was 25.6 µM (inactive); with HOP-92 it was 10.1 µM (inactive); with HCT-15 it was 17.2 µM; in the experiment on EKVX, 23 µM (inactive); with OVCAR-5, 21.8 µM (inactive); with KM12, 18.6 µM (inactive). Moreover, the GI50 was 3.28 µM (inactive) with CCRF-CEM; 10.4 µM (inactive) in the experiment on SW-620; 15.2 µM (inactive) in the experiment on U-251; 15.2 µM (inactive) in the experiment with SK-MEL-28; 24.4 µM (inactive) in the experiment with HCC 2998; 13.8 µM (inactive) in the experiment on OVCAR-8. Also, the GI50 in the experiment on MDA-MB-435 was 17.2 µM (inactive); in the experiment on UACC-62, 15.2 µM (inactive).
For the molecule `O=C(C=P(c1ccccc1)(c1ccccc1)c1ccccc1)c1ccc(-c2cccs2)cc1`, the GI50 is 0.9 µM (active) in the experiment on A498; 2.11 µM (inactive) with HL-60; 3.59 µM (inactive) in the experiment on K562; 2.33 µM (inactive) in the experiment with T47D; 4.48 µM (inactive) in the experiment with NCI/ADR-RES; 3.35 µM (inactive) in the experiment on NCI-H522. Also, the GI50 was 18.5 µM (inactive) in the experiment on Hs-578T; 3.48 µM (inactive) in the experiment on HOP-92; 6.61 µM in the experiment with HCT-15; 2.61 µM (inactive) with EKVX; 5 µM (inactive) in the experiment on OVCAR-5; 4.13 µM (inactive) in the experiment with KM12. The GI50 in the experiment on CCRF-CEM was 4.56 µM (inactive); in the experiment with SW-620 it was 4.33 µM (inactive); in the experiment with U-251 it was 3.85 µM (inactive); in the experiment on SK-MEL-28, 3.41 µM (inactive); in the experiment on HCC 2998, 2.83 µM (inactive); in the experiment on OVCAR-8, 4.86 µM (inactive). The GI50 is 3.08 µM (inactive) in the experiment on MDA-MB-435 and 1.64 µM (inactive) in the experiment on UACC-62.
`CCOC(=O)CCC(NC(=O)c1ccc(Oc2nc3ccc(C(F)(F)F)cc3nc2-c2ccccc2)cc1)C(=O)OCC` (stereo not given): the GI50 was 16.4 µM (inactive) in the experiment with A498; > 100 µM (inactive) in the experiment with HL-60; > 100 µM (inactive) in the experiment with K562; > 42.2 µM (inactive) with T47D; 15.5 µM (inactive) in the experiment on NCI/ADR-RES; 9.57 µM (inactive) in the experiment on NCI-H522. Also, the GI50 was 3.33 µM (inactive) in the experiment on Hs-578T; 18.9 µM (inactive) in the experiment with HOP-92; above 100 µM in the experiment on HCT-15; 12.9 µM (inactive) with EKVX; > 68.7 µM (inactive) in the experiment with OVCAR-5; 11.2 µM (inactive) in the experiment with KM12. The GI50 in the experiment with CCRF-CEM is > 100 µM (inactive); with SW-620 it was > 100 µM (inactive); in the experiment with U-251 it was 20.4 µM (inactive); in the experiment on SK-MEL-28 it was > 100 µM (inactive); in the experiment on HCC 2998 it was > 100 µM (inactive); in the experiment on OVCAR-8, 9.06 µM (inactive). The values for the GI50 with MDA-MB-435 and in the experiment on UACC-62 were > 100 µM (inactive) and 23.1 µM (inactive), respectively.
In the case of `CCCCCc1cc2cc3c(c(O)c2c(=O)[nH]1)C1(CC3)C(=O)c2c(O)c3c(c(O)c2C1=O)C(=O)C(OC)=CC3=O` (stereo not given), the GI50 with A498 was 2.31 µM (inactive); in the experiment on HL-60 it was 0.421 µM (active); in the experiment with K562, 0.456 µM (active); in the experiment with T47D it was 0.239 µM (active); with NCI/ADR-RES, 1.17 µM (inactive); in the experiment on NCI-H522, 0.359 µM (active). For the same molecule, the GI50 with Hs-578T was 1.53 µM (inactive); with HOP-92, 0.263 µM (active); in the experiment on HCT-15 it was 0.388 µM; in the experiment on EKVX, 0.916 µM (active); with OVCAR-5 it was 2.98 µM (inactive); in the experiment on KM12 it was 1.26 µM (inactive). Moreover, the GI50 was 0.0859 µM (active) with CCRF-CEM; 0.442 µM (active) with SW-620; 0.601 µM (active) in the experiment on U-251; 2.01 µM (inactive) in the experiment with SK-MEL-28; 1.05 µM (active) with HCC 2998; 0.622 µM (active) in the experiment with OVCAR-8. The GI50 in the experiment on MDA-MB-435 is 1.49 µM (inactive); in the experiment on UACC-62 it was 1.24 µM (inactive).
Consider `CCOc1cc2oc(C)cc(=O)c2c(OC)c1/C=N/c1ccc(Cn2c(C)nc3ccccc32)cc1`, for which the GI50 in the experiment on A498, in the experiment with HL-60, in the experiment with K562, with T47D, with NCI/ADR-RES and with NCI-H522 was > 100 µM (inactive) in each case. Also, the GI50 in the experiment on Hs-578T is > 100 µM (inactive); in the experiment on HOP-92 it was > 100 µM (inactive); in the experiment on HCT-15 it was above 100 µM; with EKVX, > 100 µM (inactive); with OVCAR-5 it was > 100 µM (inactive); in the experiment with KM12, > 100 µM (inactive). In addition, the GI50 in the experiment with CCRF-CEM, in the experiment with SW-620, in the experiment on U-251, in the experiment with SK-MEL-28, with HCC 2998 and in the experiment with OVCAR-8 was > 100 µM (inactive) in each case. The GI50 in the experiment on MDA-MB-435 and in the experiment on UACC-62 was > 100 µM (inactive) throughout.
On to `CC(C)C(C/C=C1/CC(CO)(COC(=O)CC(C(C)C)C(C)C)OC1=O)C(C)C` (stereo not given), for which the GI50 was 2.98 µM (inactive) in the experiment on A498; 0.0931 µM (active) in the experiment with HL-60; 0.389 µM (active) with K562; 0.982 µM (active) in the experiment with T47D; 16 µM (inactive) in the experiment with NCI/ADR-RES; 12.9 µM (inactive) in the experiment with NCI-H522. For the same molecule, the GI50 with Hs-578T is 0.102 µM (active); in the experiment on HOP-92, 0.998 µM (active); with HCT-15, 15.6 µM; in the experiment with EKVX, 1.79 µM (inactive); in the experiment with OVCAR-5, 9.42 µM (inactive); with KM12, 6.82 µM (inactive). Besides, the GI50 with CCRF-CEM was 2.74 µM (inactive); in the experiment with SW-620 it was 0.991 µM (active); in the experiment on U-251, 11.6 µM (inactive); in the experiment on SK-MEL-28, 14.2 µM (inactive); in the experiment on HCC 2998 it was 2.89 µM (inactive); with OVCAR-8, 16.1 µM (inactive). Also, the GI50 with MDA-MB-435 was 0.475 µM (active); with UACC-62, 15.7 µM (inactive).
In the case of `CCc1nc(N)nc(N)c1-c1ccc(N2CCNCC2)cc1`, the GI50 with A498 was > 97.1 µM (inactive); with HL-60, 34.4 µM (inactive); in the experiment on K562, 24.2 µM (inactive); in the experiment on T47D, 57.7 µM (inactive); with NCI/ADR-RES it was > 100 µM (inactive); in the experiment with NCI-H522, 55.1 µM (inactive). The GI50 with Hs-578T is > 100 µM (inactive); with HOP-92, > 100 µM (inactive); with HCT-15, 54.5 µM; in the experiment with EKVX, > 83 µM (inactive); in the experiment with OVCAR-5, > 100 µM (inactive); with KM12, > 95.9 µM (inactive). Moreover, the GI50 in the experiment on CCRF-CEM is 33.7 µM (inactive); with SW-620 it was 56.5 µM (inactive); in the experiment with U-251, 88.7 µM (inactive); in the experiment on SK-MEL-28 it was > 78.5 µM (inactive); in the experiment on HCC 2998, 42.8 µM (inactive); in the experiment on OVCAR-8 it was 66.5 µM (inactive). Further, the GI50 in the experiment on MDA-MB-435 was 59.8 µM (inactive); in the experiment with UACC-62, 69 µM (inactive).
On to `COc1cc2c(cc1OCCCCCOc1cc3c(cc1OC)C(=O)N1CCC[C@H]1C(=O)N3)N=C[C@@H]1CCCN1C2=O`, for which the GI50 in the experiment on A498 was 0.218 µM (active); with HL-60, 0.0817 µM (active); with K562, 0.0453 µM (active); with T47D, 0.0336 µM (active); with NCI/ADR-RES, 7.8 µM (inactive); in the experiment on NCI-H522, 0.0112 µM (active). Also, the GI50 was 0.258 µM (active) in the experiment on Hs-578T; 0.0299 µM (active) with HOP-92; 3.08 µM in the experiment on HCT-15; 0.279 µM (active) in the experiment with EKVX; 0.957 µM (active) in the experiment on OVCAR-5; 0.18 µM (active) with KM12. The GI50 in the experiment with CCRF-CEM is < 0.01 µM (active); with SW-620, 0.0875 µM (active); in the experiment on U-251, 0.0225 µM (active); in the experiment on SK-MEL-28, 0.174 µM (active); with HCC 2998 it was < 0.01 µM (active); in the experiment with OVCAR-8, 0.225 µM (active). For the same molecule, the GI50 was 0.124 µM (active) in the experiment with MDA-MB-435 and 0.0736 µM (active) in the experiment on UACC-62.
